Assay results taken from patent publication US20260325685A1, “Radiopharmaceutical Compositions Targeting Carbonic Anhydrase IX and Uses Thereof” (RayzeBio, Inc., priority 2023, published 2026).
Where two headings read alike, the source gives them in different places.

Assays:
[1] = biological target: T1, human CA-XII (Homo sapiens, UniProt O43570); experiment: Surface Plasmon Resonance (SPR) binding kinetics to recombinant human CA-XII (Biacore 8K, single-cycle kinetics, 1:1 binding model)
T1 construct: purchased Creative BioMart CA12-261H
T1 sequence (O43570 25-354): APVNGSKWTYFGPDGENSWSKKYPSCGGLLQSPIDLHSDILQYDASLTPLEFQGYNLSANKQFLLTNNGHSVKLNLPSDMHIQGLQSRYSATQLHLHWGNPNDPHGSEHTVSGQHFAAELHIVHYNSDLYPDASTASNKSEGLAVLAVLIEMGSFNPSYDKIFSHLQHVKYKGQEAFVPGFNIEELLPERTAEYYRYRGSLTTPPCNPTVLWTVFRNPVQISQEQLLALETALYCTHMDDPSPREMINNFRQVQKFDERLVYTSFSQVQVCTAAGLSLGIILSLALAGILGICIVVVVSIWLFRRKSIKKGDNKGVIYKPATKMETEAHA
How it was run: (§1)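 Kinetics are measured at 25° C against streptavidin-captured CA-IX or CA-XII (1200-1800 RU) in PBS-P+ buffer, pH 7.4, containing 1% DMSO. Nine analyte concentrations span 100-0.39 nM, with 1200 s dissociation.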

[2] = biological target: T2, human CA-IX (Homo sapiens, UniProt Q16790); experiment: Surface Plasmon Resonance (SPR) binding kinetics to recombinant human CA-IX (Biacore 8K, single-cycle kinetics, 1:1 binding model)
T2 construct: purchased Acro CA9-H82E3
How it was run: as §1

[3] = read-out: CAXII KD, Chelated Metal: Lu-175, 25° C., pH 7.4
[4] = read-out: CAIX KD; Chelated Metal: Lu-175; SPR, 25° C., pH 7.4
[5] = Chelated Metal: Cu (cold), 25° C., pH 7.4, read-out: CAXII KD
[6] = Chelated Metal: Cu (cold); SPR, 25° C., pH 7.4; read-out: CAIX KD
[7] = Chelated Metal: Lu-175, 25° C., pH 7.4, read-out: CAXII KD
[8] = Chelated Metal: Lu-175; SPR, 25° C., pH 7.4; read-out: CAIX KD

Structure (SMILES)	Kd [1, 7] [nM]	Kd [2, 8] [nM]	further results
CC(CCC(=O)N[C@@H](CC(=O)N[C@@H](CC(=O)N1CCN(C(=O)NCCOCCNC(=O)CN2CCN(CC(=O)O)CCN(CC(=O)O)CCN(CC(=O)O)CC2)C[C@@H]1CCCCn1cc(CCCC(=O)Nc2nnc(S(N)(=O)=O)s2)nn1)C(=O)O)C(=O)O)(c1ccc(O)cc1)c1ccc(O)cc1.[Lu+3] [Compound 123]			Kd [1, 3]: 2.5 to 10 nM; Kd [2, 4]: 1 to 2.5 nM
CC(CCC(=O)N[C@@H](CC(=O)N[C@@H](CC(=O)N1CCN(C(=O)OCCOCCNC(=O)CN2CCN(CC(=O)O)CCN(CC(=O)O)CCN(CC(=O)O)CC2)C[C@@H]1CCCCn1cc(CCCC(=O)Nc2nnc(S(N)(=O)=O)s2)nn1)C(=O)O)C(=O)O)(c1ccc(O)cc1)c1ccc(O)cc1.[Lu+3] [Compound 124]			Kd [1, 3]: 2.5 to 10 nM; Kd [2, 4]: 2.5 to 10 nM
CC(CCCC(=O)N1CCC(C(N)=O)(C(=O)NCC(=O)N2CCN(C(=O)CN3CCN(CC(=O)O)CCN(CC(=O)O)CC3)C[C@@H]2C(=O)NCCn2cc(C34CC(C(=O)Nc5nnc(S(N)(=O)=O)s5)(C3)C4)nn2)CC1)(c1ccc(O)cc1)c1ccc(O)cc1.[Cu+2] [Compound 126.1]			Kd [1, 5]: > 10 nM; Kd [2, 6]: < 1 nM
NS(=O)(=O)c1nnc(NC(=O)C23CC(c4cn(CCNC(=O)[C@@H]5CN(C(=O)CN6CCN(CC(=O)O)CCN(CC(=O)O)CC6)CCN5C(=O)C[C@H](NC(=O)C[C@H](NC(=O)c5ccc(C6CC6)cn5)C(=O)O)C(=O)O)nn4)(C2)C3)s1.[Cu+2] [Compound 126.2]			Kd [1, 5]: 2.5 to 10 nM; Kd [2, 6]: < 1 nM
CC(CCCC(=O)N1CCOC[C@H]1C(=O)N[C@@H](CC(=O)N1CCN(C(=O)CN2CCN(CC(=O)O)CCN(CC(=O)O)CC2)C[C@@H]1C(=O)NCCn1cc(C23CC(C(=O)Nc4nnc(S(N)(=O)=O)s4)(C2)C3)nn1)C(=O)O)(c1ccc(O)cc1)c1ccc(O)cc1.[Cu+2] [Compound 126.3]			Kd [1, 5]: > 10 nM; Kd [2, 6]: < 1 nM
CC(CCC(=O)N[C@@H](CC(=O)N[C@@H](CC(=O)N1CCN(C(=O)CN2CCN(CC(=O)O)CCN(CC(=O)O)CC2)C[C@H]1C(=O)NCCn1cc(C23CC(C(=O)Nc4nnc(S(N)(=O)=O)s4)(C2)C3)nn1)C(=O)O)C(=O)O)(c1ccc(O)cc1)c1ccc(O)cc1.[Cu+2] [Compound 126.4]			Kd [1, 5]: > 10 nM; Kd [2, 6]: < 1 nM
NS(=O)(=O)c1nnc(NC(=O)C23CC(c4cn(CCNC(=O)[C@@H]5CN(C(=O)CN6CCN(CC(=O)O)CCN(CC(=O)O)CC6)CCN5C(=O)C[C@H](NC(=O)C[C@H](NC(=O)CC5CC6(CCC6)C5)C(=O)O)C(=O)O)nn4)(C2)C3)s1.[Cu+2] [Compound 126.5]			Kd [1, 5]: 1 to 2.5 nM; Kd [2, 6]: < 1 nM
CC(CCCC(=O)N1CCC(C(N)=O)(C(=O)NCC(=O)N2CCN(C(=O)CN3CCN(CC(=O)O)CCN(CC(=O)O)CC3)C[C@H]2C(=O)NCCn2cc(C34CC(C(=O)Nc5nnc(S(N)(=O)=O)s5)(C3)C4)nn2)CC1)(c1ccc(O)cc1)c1ccc(O)cc1.[Cu+2] [Compound 126]			Kd [1, 5]: > 10 nM; Kd [2, 6]: < 1 nM
CC(CCCC(=O)N1CCC(C(N)=O)(C(=O)NCC(=O)N2CCN(C(=O)CC[C@H](C(=O)O)N3CCN(CC(=O)O)CCN(CC(=O)O)CCN(CC(=O)O)CC3)C[C@H]2C(=O)NCCn2cc(C34CC(C(=O)Nc5nnc(S(N)(=O)=O)s5)(C3)C4)nn2)CC1)(c1ccc(O)cc1)c1ccc(O)cc1.[Lu+3] [Compound 127.1]	> 10	< 1	
CC(CCCC(=O)N1CCC(C(N)=O)(C(=O)NCC(=O)N2CCN(C(=O)CC[C@H](C(=O)O)N3CCN(CC(=O)O)CCN(CC(=O)O)CCN(CC(=O)O)CC3)C[C@@H]2C(=O)NCCn2cc(C34CC(C(=O)Nc5nnc(S(N)(=O)=O)s5)(C3)C4)nn2)CC1)(c1ccc(O)cc1)c1ccc(O)cc1.[Lu+3] [Compound 127.2]	> 10	< 1	
CC(CCCC(=O)N1CCC(C(N)=O)(C(=O)NCC(=O)N2CCN(C(=O)CCC(C(=O)O)N3CCN(CC(=O)O)CCN(CC(=O)O)CC3)C[C@@H]2C(=O)NCCn2cc(C34CC(C(=O)Nc5nnc(S(N)(=O)=O)s5)(C3)C4)nn2)CC1)(c1ccc(O)cc1)c1ccc(O)cc1.[Cu+2] (stereo partly shown) [Compound 127.3]			Kd [1, 5]: > 10 nM; Kd [2, 6]: < 1 nM
CC(CCCC(=O)N1CCC(C(N)=O)(C(=O)NCC(=O)NC2(C(=O)NCCn3cc(C45CC(C(=O)Nc6nnc(S(N)(=O)=O)s6)(C4)C5)nn3)CCN(C(=O)CC[C@H](C(=O)O)N3CCN(CC(=O)O)CCN(CC(=O)O)CCN(CC(=O)O)CC3)CC2)CC1)(c1ccc(O)cc1)c1ccc(O)cc1.[Lu+3] [Compound 127.4]	> 10	< 1	
CC(CCCC(=O)N1CCC(C(N)=O)(C(=O)NCC(=O)NC2(C(=O)NCCn3cc(C45CC(c6cn7nc(S(N)(=O)=O)sc7n6)(C4)C5)nn3)CCN(C(=O)CC[C@H](C(=O)O)N3CCN(CC(=O)O)CCN(CC(=O)O)CCN(CC(=O)O)CC3)CC2)CC1)(c1ccc(O)cc1)c1ccc(O)cc1.[Lu+3] [Compound 127.5]	2.5 to 10	< 1	
CC(CCCC(=O)N1CCC(C(N)=O)(C(=O)NCC(=O)NC2(C(=O)NCCn3cc(C45CCC(c6cn7nc(S(N)(=O)=O)sc7n6)(CC4)CC5)nn3)CCN(C(=O)CC[C@H](C(=O)O)N3CCN(CC(=O)O)CCN(CC(=O)O)CCN(CC(=O)O)CC3)CC2)CC1)(c1ccc(O)cc1)c1ccc(O)cc1.[Lu+3] [Compound 127.6]	< 1	< 1	
Cc1cc(C(=O)Nc2nnc(S(N)(=O)=O)s2)ccc1-c1cn(CCNC(=O)C2(NC(=O)CNC(=O)C3(C(N)=O)CCN(C(=O)CCCC(C)(c4ccc(O)cc4)c4ccc(O)cc4)CC3)CCN(C(=O)CC[C@H](C(=O)O)N3CCN(CC(=O)O)CCN(CC(=O)O)CCN(CC(=O)O)CC3)CC2)nn1.[Lu+3] [Compound 127.7]	> 10	< 1	
CC(CCCC(=O)N1CCC(C(N)=O)(C(=O)NCC(=O)N2CCN(C(=O)CC[C@H](C(=O)O)N3CCN(CC(=O)O)CCN(CC(=O)O)CCN(CC(=O)O)CC3)C[C@H]2C(=O)NCCn2cc(C34CC(C(=O)Nc5nnc(S(N)(=O)=O)s5)(C3)C4)nn2)CC1)(c1ccc(O)c(F)c1)c1ccc(O)c(F)c1.[Lu+3] [Compound 127.8]	> 10	< 1	
CC(CCCC(=O)N1CCC(C(N)=O)(C(=O)NCC(=O)NC2(C(=O)NCCn3cc(COc4ccc5nc(S(N)(=O)=O)sc5c4)nn3)CCN(C(=O)CC[C@H](C(=O)O)N3CCN(CC(=O)O)CCN(CC(=O)O)CCN(CC(=O)O)CC3)CC2)CC1)(c1ccc(O)cc1)c1ccc(O)cc1.[Lu+3] [Compound 127.9]	> 10	< 1	
CC(CCC(=O)N[C@@H](CC(=O)N[C@@H](CC(=O)N1CCN(C(=O)CC[C@H](C(=O)O)N2CCN(CC(=O)O)CCN(CC(=O)O)CCN(CC(=O)O)CC2)C[C@H]1C(=O)NCCn1cc(C23CC(C(=O)Nc4nnc(S(N)(=O)=O)s4)(C2)C3)nn1)C(=O)O)C(=O)O)(c1ccc(O)cc1)c1ccc(O)cc1.[Lu+3] [Compound 127]	> 10	< 1	
CC[C@H]1CN(CC(=O)O)[C@@H](CC)CN(CC(=O)N2CCN(C(=O)CNC(=O)C3(C(N)=O)CCN(C(=O)CCCC(C)(c4ccc(O)cc4)c4ccc(O)cc4)CC3)[C@H](C(=O)NCCn3cc(C45CC(C(=O)Nc6nnc(S(N)(=O)=O)s6)(C4)C5)nn3)C2)[C@@H](CC)CN(CC(=O)O)[C@@H](CC)CN1CC(=O)O.[Lu+3] [Compound 128.1]	> 10	< 1	
CC[C@H]1CN(CC(=O)O)[C@@H](CC)CN(CC(=O)N2CCN(C(=O)C[C@H](NC(=O)C[C@H](NC(=O)CCC(C)(c3ccc(O)cc3)c3ccc(O)cc3)C(=O)O)C(=O)O)[C@H](C(=O)NCCn3cc(C45CC(C(=O)Nc6nnc(S(N)(=O)=O)s6)(C4)C5)nn3)C2)[C@@H](CC)CN(CC(=O)O)[C@@H](CC)CN1CC(=O)O.[Lu+3] [Compound 128]	> 10	< 1	
CC(CCCC(=O)N1CCC(C(N)=O)(C(=O)NCC(=O)N2CCN(C(=O)CCOCCOCCOCCOCCOCCOCCOCCOCCNC(=O)CN3CCN(CC(=O)O)CCN(CC(=O)O)CCN(CC(=O)O)CC3)C[C@H]2C(=O)NCCn2cc(C34CC(C(=O)Nc5nnc(S(N)(=O)=O)s5)(C3)C4)nn2)CC1)(c1ccc(O)cc1)c1ccc(O)cc1.[Lu+3] [Compound 129.1]	> 10	< 1	
CC(CCCC(=O)N1CCC(C(N)=O)(C(=O)NCC(=O)N2CCN(C(=O)CCOCCOCCNC(=O)CN3CCN(CC(=O)O)CCN(CC(=O)O)CCN(CC(=O)O)CC3)C[C@@H]2C(=O)NCCn2cc(C34CC(C(=O)Nc5nnc(S(N)(=O)=O)s5)(C3)C4)nn2)CC1)(c1ccc(O)cc1)c1ccc(O)cc1.[Lu+3] [Compound 129.2]	> 10	< 1	
CC(CCCC(=O)N1CCC(C(N)=O)(C(=O)NCC(=O)N2CCN(C(=O)CN3CCN(C(=O)CN4CCN(CC(=O)O)CCN(CC(=O)O)CCN(CC(=O)O)CC4)CC3)C[C@@H]2C(=O)NCCn2cc(C34CC(C(=O)Nc5nnc(S(N)(=O)=O)s5)(C3)C4)nn2)CC1)(c1ccc(O)cc1)c1ccc(O)cc1.[Lu+3] [Compound 129.3]	> 10	< 1	
CC(CCCC(=O)N1CCC(C(N)=O)(C(=O)NCC(=O)N2CCN(C(=O)CCOCCOCCCC(=O)CN3CCN(CC(=O)O)CCN(CC(=O)O)CCN(CC(=O)O)CC3)C[C@H]2C(=O)NCCn2cc(C34CC(C(=O)Nc5nnc(S(N)(=O)=O)s5)(C3)C4)nn2)CC1)(c1ccc(O)cc1)c1ccc(O)cc1 [Compound 129.4]			Kd ([1]; Chelated Metal: None, 25° C., pH 7.4, read-out: CAXII KD): > 10 nM; Kd ([2]; Chelated Metal: None; SPR, 25° C., pH 7.4; read-out: CAIX KD): < 1 nM; Ratio (CAXII/CAIX) ([2]; KD ratio CAXII/CAIX; Chelated Metal: None): **** (50 < ****)
